The format of data set [1] is physicochemical. As to conditions: nonylphenol. As for the experimental part:
From the group of the phenols as defined above and substituted by aliphatic radicals, those are advantageously selected for the use according to the invention, whose melting point is below 90° C., preferably below 50° C. and especially below 20°-30° C. A low melting point of the phenol derivatives used allows the process to be carried out at correspondingly low temperatures, which has a very favorable effect on the partition coefficient KD. KD is defined as follows: [formula]
The phases were then allowed to settle and were separated, and the concentration of NMP in the two phases was determined.
After the phases had been allowed to settle, these were separated, and the concentration of NMP in the two phases was determined.
Thereupon, the phases were allowed to settle and were separated, and the concentration of NMP in the two phases was determined.
[…] After the phases had been allowed to settle, these were separated, and the concentration of NMP in the two phases was determined.

The conditions of data set [2]: room temperature; cited from earlier work.
The mark [3] stands for this setting: Example 1a, feed 35% NMP, phase volume ratio 1:4, room temperature.
Setting [4] is: Example 1b, feed 35% NMP, phase volume ratio 1:6, room temperature.
Where [5] appears, read: Example 1c, feed 35% NMP, phase volume ratio 1:10, room temperature.
Setting [6] is: Example 1e, feed 33% NMP, phase ratio 1:2, 70° C.
Setting [7] is: Example 1f, feed 33% NMP, phase volume ratio 1:10, 70° C.
The mark [8] stands for this setting: Example 1d, feed 9% NMP, phase volume ratio 1:1, room temperature.

The structures appear in SMILES notation. Read-outs that look alike come from different tables or passages of the source.

With `CN1CCCC1=O` [NMP, N-methyl-2-pyrrolidone], the “Aqueous raffinate phase (% by weight of NMP)” value is recorded as 0.75 % by weight in data set [1] (setting [3]); 0.30 % by weight in data set [1] (setting [4]); 0.12 % by weight in data set [1] (setting [5]); 9.0 % by weight in data set [1] (setting [6]); 1.0 % by weight in data set [1] (setting [7]); 0.64 % by weight in data set [1] (setting [8]). The “Organic extract phase (% by weight of NMP)” value in data set [1] (setting [3]) is recorded as 8.2 % by weight; in data set [1] (setting [4]) it was 5.8 % by weight; in data set [1] (setting [5]), 3.4 % by weight; in data set [1] (setting [6]), 12.4 % by weight; in data set [1] (setting [7]), 3.4 % by weight; in data set [1] (setting [8]) it was 8.3 % by weight.

With `Cc1cc(C)cc(O)c1` [3,5-dimethylphenol], the solubility in water in data set [2] was 0.49 % by weight.

Take `Cc1cccc(O)c1` [m-cresol]: in data set [2], the solubility in water was 2.3 % by weight.
